Results reported in US10908171B2, “Additive channels” (Emulate Inc., priority 2016, dated 2021).

System: platelets
Experiment: Platelet activation quality control by p-selectin expression
Assay type: cell-based, human
Conditions: control blood
Procedure: To test for a thrombic event, blood was collected from 4 donors, the as blood alone or blood treated with hu5C8 alone (240 μg/ml), sCD40L (10 ng/ml) alone or with combined hu5C8/sCD40L was incubated for 20 minutes at room temperature. Each sample was further incubated for 5 minutes with fluorescent labels for platelets and fibrinogen. As a standard quality control, the control blood was tested for platelet activation using p-selection expression. We confirmed that platelets in control blood were not activated but upon activation by ADP, over 90% of platelet was positive for p-selectin.

With `Nc1ncnc2c1ncn2[C@@H]1O[C@H](COP(=O)(O)OP(=O)(O)O)[C@@H](O)[C@H]1O` [ADP] the “platelets positive for p-selectin upon activation” value was “over 90%”.
